Assay results published in publication PMC6057649, “Development of NanoLuc-PEST expressing Leishmania mexicana as a new drug discovery tool for axenic- and intramacrophage-based assays” (PLoS Neglected Tropical Diseases, 2018).

Test system: NanoLuc-PEST expressing L. mexicana axenic amastigotes
Assay: microbe, parasite or virus in culture
Type: cell-based
Conditions: for Relative Bioluminescence (%) / viability at 2 µM / viability at 10 µM: 72 hours, relative to DMSO only control, n = 4; for viability at 2 µM / viability at 10 µM: Leishmania mexicana, read-out: Relative Bioluminescence (%); for EC50: hit compounds from the axenic amastigote screen, S3 Table, read-out: EC50, Axenic Amastigotes

Structure (SMILES) | Relative Bioluminescence (%) (2 µM compound) | Relative Bioluminescence (%) (10 µM compound) | viability at 2 µM (2 µM compound) | viability at 10 µM (10 µM compound) | EC50
COc1ccc(-c2nnc3ccc(-c4cccc(C(C)C)c4)cn23)cc1OC [MMV688313] | 55.91% | 18.47% | – | – | –
CC(=O)NC[C@H]1CN(c2ccc(-c3ccc(CNCc4cnn[nH]4)cc3)c(F)c2)C(=O)O1 [MMV688327, Radezolid, reference compound] | – | – | 87.8% | 126% | –
CC(=O)N1CCN(c2ccc(Oc3ccc(Cl)cc3O)cc2)CC1 [MMV688330] | 97.96% | 79.07% | – | – | –
Nc1nc(N)c2c3c(sc2n1)CN(Cc1ccccc1)CC3 [MMV688345] | 105.25% | 69.94% | – | – | –
COC(=O)c1ccc(F)cc1NS(=O)(=O)c1cccc(-c2cnn(Cc3ccccc3)c2)c1 [MMV688350] | 101.75% | 91.24% | – | – | –
O=C1[C@@H](Oc2ccccc2)[C@@H](c2ccc(Cl)cc2)N1CCn1cnc2c(NCc3ccccc3)ncnc21 [MMV688352] | 66.17% | 8.52% | – | – | –
c1cc(C2=NCCN2)cc(-c2cc(-c3ccc(C4=NCCN4)cc3)no2)c1 [MMV688361] | 96.04% | 78.94% | – | – | –
COc1cc(C2=NCCN2)cc2cc(-c3ccc(C4=NCCN4)cc3)oc12 [MMV688362] | 95.50% | 90.68% | – | – | –
CC(C)(C)OC(=O)N1CCC(Cn2nc(-c3cnc4ccccc4c3)c3c(N)ncnc32)CC1 [MMV688364] | 80.73% | 58.45% | – | – | –
NCCN(C(=O)c1ccc(Cl)cc1Cl)c1ccc(OCc2ccc(Cl)cc2)cc1 [MMV688371] | 95.57% | 61.94% | – | – | –
O=C(Nc1ccc(F)c(-c2nc3ncc(-c4ccccc4)cc3[nH]2)c1)N1CCCC1 [MMV688372] | 17.89% | 6.87% | – | – | –
COc1cc(C2=NCCN2)ccc1-c1cn(-c2cccc(C3=NCCN3)c2)nn1 [MMV688407] | 99.20% | 50.94% | – | – | –
CC1=Nc2ccc(Cl)cc2C(c2ccccc2)N1CCNC(=O)CN(C)C (stereo not shown) [MMV688410] | 114.60% | 63.15% | – | – | –
Nc1ncnc2c1c(-c1cnc3ccccc3c1)nn2CC1CCNCC1 [MMV688411] | 105.51% | 65.85% | – | – | –
CO[C@@H]1CN(c2ccc(C#CC3(O)CN4CCC3CC4)c(Cc3ccccc3)n2)C[C@H]1O (stereo partly shown) [MMV688415] | 63.04% | 31.88% | – | – | –
CC(C)(C)OC(=O)N1CCN(c2nccc(-c3ccc(-c4ccc(Cl)cc4)s3)n2)CC1 [MMV688416] | 76.11% | 66.54% | – | – | –
CC(C)n1nc(-c2cc3c(Cl)cccc3[nH]2)c2c(N)ncnc21 [MMV688417] | 76.07% | -0.98% | – | – | –
Cn1ccnc1CNCCS(=O)(=O)c1cccc(Nc2ccc(-c3cccc(F)c3)cn2)c1 [MMV688466] | 108.11% | 117.26% | – | – | –
CCCCN(CCCC)c1c(C#N)cc(S(=O)(=O)Nc2ccccc2)cc1C#N [MMV688467] | 6.98% | 2.46% | – | – | 1650 nM
Nc1ncnc2n[nH]c(Cc3cccc4ccccc34)c12 [MMV688469] | 103.98% | 53.28% | – | – | –
CS(=O)(=O)N1CCC(CCn2nc(Cc3cccc4ccccc34)c3c(N)ncnc32)CC1 [MMV688470] | 96.68% | 53.17% | – | – | –
CC(C(=O)Nc1ccc2oc(-c3ccncc3)nc2c1)c1ccccc1 (stereo not shown) [MMV688471] | 59.14% | 49.33% | – | – | –
CC(Oc1cccc(Cl)c1)C(=O)Nc1ccc2oc(-c3ccncc3)nc2c1 (stereo not shown) [MMV688472] | 83.48% | 74.96% | – | – | –
COc1cc(C2=NCCN2)ccc1-n1cc(-c2cccc(C3=NCCN3)c2)nn1 [MMV688474] | 77.71% | 76.43% | – | – | –
CC(=O)NCC1CN(c2ccc(-c3ccc(CO)cc3)c(F)c2)C(=O)O1 (stereo not shown) [MMV688508] | 98.16% | 65.29% | – | – | –

Structure (SMILES) | Relative Bioluminescence (%) (2 µM compound) | Relative Bioluminescence (%) (10 µM compound) | viability at 2 µM (2 µM compound) | viability at 10 µM (10 µM compound) | EC50
O=C(OCc1ccccc1)N1CCC(c2cc(-c3ccncc3)c(-c3ccc(F)cc3)[nH]2)CC1 [MMV688509] | 70.28% | 27.84% | – | – | –
N=C(N)c1ccc(-c2cc(-c3ccccc3)on2)cc1 [MMV688514] | 40.80% | 34.58% | – | – | –
CC(C)(C)C(=O)N(CCCCCCN1C[C@H](O)[C@@H](O)[C@H](O)[C@H]1CO)C1CCCCCC1 [MMV688543] | 65.10% | 39.32% | – | – | –
COc1ccc(C2=NCCN2)cc1-c1cn(-c2cccc(C3=NCCN3)c2)nn1 [MMV688547] | 85.85% | 128.07% | – | – | –
CC(C)(C)n1nc(-c2ccccc2)c2c(N)ncnc21 [MMV688548] | 78.88% | 77.20% | – | – | –
CCc1ccccc1-n1c(C)cn2c3c(=O)n(C(C(=O)OC)C(C)C)c(=O)n(C)c3nc12 (stereo not shown) [MMV688550] | 66.32% | 56.13% | – | – | –
Cc1nn(C(=O)Nc2cccc(C(F)(F)F)c2)c(C)c1Sc1ncccn1 [MMV688552] | 71.00% | 47.85% | – | – | –
O=C(NCc1ccoc1)N1CCN(Cc2ccc3c(c2)OCO3)CC1 [MMV688553] | 90.94% | 98.31% | – | – | –
CNc1snc(C)c1C(=O)NCCOc1ccc(OC)cc1 [MMV688554] | 117.68% | 66.57% | – | – | –
O=C(NCc1ccco1)N1CCN(Cc2ccc(Cl)s2)CC1 [MMV688555] | 63.56% | 83.23% | – | – | –
NCC(c1cccs1)S(=O)(=O)c1ccccc1 (stereo not shown) [MMV688557] | 71.96% | 58.46% | – | – | –
CN1CCC(c2cc(-c3ccncc3)c(-c3ccc(F)cc3)[nH]2)CC1 [MMV688703] | 74.84% | 81.84% | – | – | –
Cc1cc2nc(NC(=O)C(C)(C)C)nc(Cl)c2n1Cc1ccc(Cl)cc1 [MMV688704] | 83.23% | 53.57% | – | – | –
CON=C(C(=O)OC)c1ccccc1CON=C(C)c1cccc(C(F)(F)F)c1 [MMV688754, Trifloxystrobin] | – | – | 67.6% | -1.92% | –
O=[N+]([O-])c1cn2c(n1)OC[C@@H](OCc1ccc(OC(F)(F)F)cc1)C2 [MMV688755] | 26.38% | 0.45% | – | – | –
CC(=O)NC[C@H]1CN(c2ccc(N3CCSCC3)c(F)c2)C(=O)O1 [MMV688756, Sutezolid, reference compound] | – | – | 88.9% | 64.5% | –
CS(=O)(=O)c1ccc(C(=O)N(CC2CCCO2)c2nc3ccccc3s2)cc1[N+](=O)[O-] (stereo not shown) [MMV688761] | 39.52% | -1.44% | – | – | –
c1ccc(-c2[nH]c3ccccc3c2C(c2ccccn2)N2CCCC2)cc1 (stereo not shown) [MMV688762] | 73.33% | 84.34% | – | – | –
CNc1nnc(Sc2cnn(-c3ccccc3)c(=O)c2Cl)s1 [MMV688763] | -1.63% | -0.71% | – | – | 380 nM
COc1ccc(-c2onc(C(F)(F)F)c2-c2ccc(Cl)cc2)c(O)c1 [MMV688766] | 82.40% | -2.36% | – | – | –
Cc1[nH]c2ccccc2c1C(c1cccs1)N1CCN(C)CC1 (stereo not shown) [MMV688768] | 75.96% | -1.33% | – | – | –
Cc1ccccc1C(=O)N1NC(=Nc2ccccc2)SC1(C)C [MMV688771] | 70.08% | 37.89% | – | – | –
O=C(Cn1ccnc1[N+](=O)[O-])NCc1ccccc1 [MMV688773, Benznidazole, reference compound] | – | – | 110% | 132% | –
CC[C@@H]([C@H](C)O)n1ncn(-c2ccc(N3CCN(c4ccc(OC[C@@H]5CO[C@@](Cn6cncn6)(c6ccc(F)cc6F)C5)cc4)CC3)cc2)c1=O [MMV688774, Posaconazole, reference compound] | – | – | 31.3% | -1.25% | –
